From article PMC5363373, “Zirconium tetraazamacrocycle complexes display extraordinary stability and provide a new strategy for zirconium-89-based radiopharmaceutical development” (Chemical Science, 2016)

Tests used:
Biodistribution studies = assay type: in vivo, female NIH Swiss mice; conditions: mice
Procedure: Biodistribution Studies. Biodistribution studies were conducted using a modified literature procedure. 7 Briefly, female NIH Swiss mice (6-8 wk old, n=6) were injected with each 89Zr-labeled complex (0.55 MBq (15 μCi)/mouse) via the tail vein, and sacrificed at 2, 4, 24, 48, 72 h post-injection. Organs and tissues of interest were excised, weighted, and counted on a Perkin Elmer 2480 Wizard® gamma counter (Waltham, MA). The percent injected dose per gram (%ID/g) and percent injected dose per organ (%ID/organ) were calculated by comparison to a weighed, counted standard for each group (Tables S9 – S12).
Statistical Methods. All of the data are presented as mean±SD or mean (95% Confidence Interval). For statistical classification a student’s t test (two-tailed, unpaired) was performed using GraphPad Prism (San Diego, CA). Any p<0.05 was considered significant.

[1] = In vitro metal competition study; assay type: physicochemical; conditions: PBS pH 7.4, 37 C
Procedure: In vitro Metal Competition study. To a solution of metal cations [iron (III) chloride, cobalt (II) chloride, zinc (II) chloride, copper (II) chloride, magnesium (II) chloride, gallium (III) nitrate, gadolinium (III) chloride] (1 mM, 200 µL), was added 89Zr-labeled complex (0.1 mM, 10 µL, 80 μCi, 2.96 MBq) in PBS, pH 7.4. The resulting solutions (n = 3) were incubated at 37 °C for 7 days in a thermomixer. Dissociation of 89Zr from 89Zr-complexes was monitored by radio-TLC at 2 h, 1 d, 4 d and 7 d time point. All studies were performed in triplicate.

[2] = In vitro EDTA challenge study; assay type: physicochemical
Procedure: In vitro EDTA challenge study. In vitro EDTA challenge study was carried out by adding 10 µL of each 89Zr-labeled complex (70 μCi, 2.59 MBq) to 500 µL of EDTA (10 mM, 50 mM and 100 mM: pH 5 and pH 7) with a 1:100, 1:500, and 1:1000 ratio of ligand/EDTA. The solutions (n=4) were incubated at 37 °C for 7 days in a thermomixer. Samples were analyzed at 30 min, 1 h, 3 h, 6 h, 1 d, 3 d, 5 d and 7 d post administration to EDTA by radio-TLC using Varian ITLC-SA strips and 0.1 M EDTA (pH 5) as the mobile phase and gamma counting using an energy window of 500-1500 keV and standard protocols .

[3] = In vitro serum stability (radio-ITLC); assay type: in vitro ADME; conditions: 37 C, after 7 days
Procedure: In vitro serum stability. In vitro serum stability was carried out by adding 10 µL of each 89Zr-labeled complex (70 μCi, 2.59 MBq) to 500 µL of human serum. The solutions (n=4) were incubated at 37 °C for 7 days and were analyzed daily for 1 week by radio -TLC using Varian ITLC-SA strips and 0.1 M EDTA (pH 5) as the mobile phase and gamma counting using an energy window of 500-1500 keV and standard protocols . Serum samples were also analyzed after 7 days by size exclusion chromatography (SEC) using a Superdex 200 10/300 GLTM column (GE Healthcare Life Sciences, Piscataway, NJ) and phosphate buffered saline (PBS) as eluent with a flow rate of 0.5 mL/min.
Figure S30. Radio-ITLC of 89Zr-DOTA solution in human serum at 37 °C after 0 h (a) and 7 days (b). […]

[4] = intravenous, 72 h post-injection

Radioactivity in blood (Biodistribution studies; [4]): 0.0003 ± 0.0005 % ID per g | Radioactivity in bone (Biodistribution studies; [4]): 0.079 ± 0.014 % ID per g | Radioactivity in kidney (Biodistribution studies; [4]): 0.69 ± 0.098 % ID per g | Radioactivity in liver (Biodistribution studies; [4]): 0.066 ± 0.009 % ID per g | Radioactivity retention in bone tissue over time (Biodistribution studies; time points up to 72 h): increases over time | % Intact of 89Zr-complexes ([1]; Co2+, 2 h): 99.2 ± 0.2% | % Intact of 89Zr-complexes ([1]; Co2+, 1 d): 98.3 ± 0.4% | % Intact of 89Zr-complexes ([1]; Co2+, 4 d): 98.1 ± 0.3% | % Intact of 89Zr-complexes ([1]; Co2+, 7 d): 95.4 ± 0.9% | % Intact of 89Zr-complexes ([1]; Cu2+, 2 h): 98.9 ± 0.5% | % Intact of 89Zr-complexes ([1]; Cu2+, 1 d): 98.6 ± 0.4% | % Intact of 89Zr-complexes ([1]; Cu2+, 4 d): 97.3 ± 0.7% | % Intact of 89Zr-complexes ([1]; Cu2+, 7 d): 96.0 ± 1.0% | % Intact of 89Zr-complexes ([1]; Fe3+, 2 h): 96.5 ± 0.2% | % Intact of 89Zr-complexes ([1]; Fe3+, 1 d): 76.1 ± 1.3% | % Intact of 89Zr-complexes ([1]; Fe3+, 4 d): 53.2 ± 3.8% | % Intact of 89Zr-complexes ([1]; Fe3+, 7 d): 33.9 ± 1.5% | % Intact of 89Zr-complexes ([1]; Fe3+, 7 d, listed as 89Zr–DFO): 33.9% | % Intact of 89Zr-complexes ([1]; Ga3+, 2 h): 99.3 ± 0.2% | % Intact of 89Zr-complexes ([1]; Ga3+, 1 d): 93.4 ± 2.6% | % Intact of 89Zr-complexes ([1]; Ga3+, 4 d): 81.1 ± 0.5% | % Intact of 89Zr-complexes ([1]; Ga3+, 7 d): 72.6 ± 1.3% | % Intact of 89Zr-complexes ([1]; Ga3+, 7 d, listed as 89Zr–DFO): 72.6% | % Intact of 89Zr-complexes ([1]; Gd3+, 2 h): 99.4 ± 0.3% | % Intact of 89Zr-complexes ([1]; Gd3+, 1 d): 98.8 ± 0.1% | % Intact of 89Zr-complexes ([1]; Gd3+, 4 d): 98.4 ± 0.3% | % Intact of 89Zr-complexes ([1]; Gd3+, 7 d): 96.8 ± 0.2% | % Intact of 89Zr-complexes ([1]; Mg2+, 2 h): 99.3 ± 0.1% | % Intact of 89Zr-complexes ([1]; Mg2+, 1 d): 98.6 ± 0.5% | % Intact of 89Zr-complexes ([1]; Mg2+, 4 d): 97.6 ± 0.8% | % Intact of 89Zr-complexes ([1]; Mg2+, 7 d): 96.8 ± 1.2% | % Intact of 89Zr-complexes ([1]; Zn2+, 2 h): 99.5 ± 0.1% | % Intact of 89Zr-complexes ([1]; Zn2+, 1 d): 98.8 ± 0.3% | % Intact of 89Zr-complexes ([1]; Zn2+, 4 d): 97.7 ± 0.6% | % Intact of 89Zr-complexes ([1]; Zn2+, 7 d): 95.9 ± 0.7% | % Intact of 89Zr-complexes ([2]; EDTA 100-fold, pH 5.0, 37 C, 30 min): 93.0 ± 0.7% | % Intact of 89Zr-complexes ([2]; EDTA 100-fold, pH 5.0, 37 C, 1 h): 85.5 ± 0.9% | % Intact of 89Zr-complexes ([2]; EDTA 100-fold, pH 5.0, 37 C, 3 h): 59.6 ± 0.8% | % Intact of 89Zr-complexes ([2]; EDTA 100-fold, pH 5.0, 37 C, 6 h): 29.4 ± 0.7% | % Intact of 89Zr-complexes ([2]; EDTA 100-fold, pH 5.0, 37 C, 1 d): 6.6 ± 0.3% | % Intact of 89Zr-complexes ([2]; EDTA 100-fold, pH 5.0, 37 C, 3 d): 5.4 ± 0.3% | % Intact of 89Zr-complexes ([2]; EDTA 100-fold, pH 5.0, 37 C, 5 d): 4.4 ± 0.2% | % Intact of 89Zr-complexes ([2]; EDTA 100-fold, pH 5.0, 37 C, 7 d): 3.6 ± 0.1% | % Intact of 89Zr-complexes ([2]; EDTA 100-fold, pH 7.0, 37 C, 30 min): 99.0 ± 0.4% | % Intact of 89Zr-complexes ([2]; EDTA 100-fold, pH 7.0, 37 C, 1 h): 96.6 ± 1.1% | % Intact of 89Zr-complexes ([2]; EDTA 100-fold, pH 7.0, 37 C, 3 h): 90.3 ± 0.8% | % Intact of 89Zr-complexes ([2]; EDTA 100-fold, pH 7.0, 37 C, 6 h): 89.4 ± 0.2% | % Intact of 89Zr-complexes ([2]; EDTA 100-fold, pH 7.0, 37 C, 1 d): 88.6 ± 0.2% | % Intact of 89Zr-complexes ([2]; EDTA 100-fold, pH 7.0, 37 C, 3 d): 87.2 ± 0.6% | % Intact of 89Zr-complexes ([2]; EDTA 100-fold, pH 7.0, 37 C, 5 d): 86.6 ± 0.3% | % Intact of 89Zr-complexes ([2]; EDTA 100-fold, pH 7.0, 37 C, 7 d): 83.9 ± 0.5% | % Intact of 89Zr-complexes ([2]; EDTA 500-fold, pH 5.0, 37 C, 30 min): 60.9 ± 1.0% | % Intact of 89Zr-complexes ([2]; EDTA 500-fold, pH 5.0, 37 C, 1 h): 33.9 ± 1.2% | % Intact of 89Zr-complexes ([2]; EDTA 500-fold, pH 5.0, 37 C, 3 h): 3.9 ± 0.4% | % Intact of 89Zr-complexes ([2]; EDTA 500-fold, pH 5.0, 37 C, 6 h): 0% | % Intact of 89Zr-complexes ([2]; EDTA 500-fold, pH 7.0, 37 C, 30 min): 90.3 ± 0.7% | % Intact of 89Zr-complexes ([2]; EDTA 500-fold, pH 7.0, 37 C, 1 h): 81.1 ± 1.1% | % Intact of 89Zr-complexes ([2]; EDTA 500-fold, pH 7.0, 37 C, 3 h): 58.6 ± 0.3% | % Intact of 89Zr-complexes ([2]; EDTA 500-fold, pH 7.0, 37 C, 6 h): 42.7 ± 1.2% | % Intact of 89Zr-complexes ([2]; EDTA 500-fold, pH 7.0, 37 C, 1 d): 36.2 ± 0.7% | % Intact of 89Zr-complexes ([2]; EDTA 500-fold, pH 7.0, 37 C, 3 d): 31.8 ± 1.1% | % Intact of 89Zr-complexes ([2]; EDTA 500-fold, pH 7.0, 37 C, 5 d): 30.4 ± 0.9% | % Intact of 89Zr-complexes ([2]; EDTA 500-fold, pH 7.0, 37 C, 7 d): 28.5 ± 0.4% | % Intact of 89Zr-complexes ([2]; EDTA 1000-fold, pH 5.0, 37 C, 30 min): 37.7 ± 1.1% | % Intact of 89Zr-complexes ([2]; EDTA 1000-fold, pH 5.0, 37 C, 1 h): 14.6 ± 0.7% | % Intact of 89Zr-complexes ([2]; EDTA 1000-fold, pH 5.0, 37 C, 3 h): 0% | % Intact of 89Zr-complexes ([2]; EDTA 1000-fold, pH 7.0, 37 C, 30 min): 85.6 ± 1.1% | % Intact of 89Zr-complexes ([2]; EDTA 1000-fold, pH 7.0, 37 C, 1 h): 68.3 ± 1.2% | % Intact of 89Zr-complexes ([2]; EDTA 1000-fold, pH 7.0, 37 C, 3 h): 45.4 ± 0.7% | % Intact of 89Zr-complexes ([2]; EDTA 1000-fold, pH 7.0, 37 C, 6 h): 32.9 ± 0.5% | % Intact of 89Zr-complexes ([2]; EDTA 1000-fold, pH 7.0, 37 C, 1 d): 28.1 ± 0.7% | % Intact of 89Zr-complexes ([2]; EDTA 1000-fold, pH 7.0, 37 C, 3 d): 24.5 ± 0.8% | % Intact of 89Zr-complexes ([2]; EDTA 1000-fold, pH 7.0, 37 C, 5 d): 21.4 ± 1.2% | % Intact of 89Zr-complexes ([2]; EDTA 1000-fold, pH 7.0, 37 C, 7 d): 20.3 ± 0.5% | Loss of metal ions in EDTA challenge ([2]; after 3 h incubation, 1000-fold excess of EDTA at pH 5): completely lost metal ions | Radio-ITLC peak of complex in human serum [3]: 100%
Structure (SMILES): CC(=O)N1CCCCCNC(=O)CCC(=O)N2CCCCCNC(=O)CCC(=O)N(CCCCCN)[O][89Zr+]([O]1)[O]2 [89Zr-DFO, reference compound]
